Test results from patent publication US4748177A, “Guanine derivatives” (Warner-Lambert Company, priority 1985, dated 1988).

Tested on: T-cells
Test: standard test of selective cytotoxicity for T-cells in the presence of 2'-deoxyguanosine
Format: cell-based
Conditions: in the presence of 10 μM of 2'-deoxyguanosine
Method: […] activity was measured radiochemically by measuring the formation of [^14 -C]-hypoxanthine from [^14 -C]-inosine [Biomedicine, 33, 39 (1980)] using human erythrocyte as the enzyme source. The same compounds also were found by a standard test [Science, 214, 1137, (1981)] to be selectively cytotoxic for T-cells in the presence of 2'-deoxyguanosine at a similar concentration range. For example, 8-amino-9-[(4-methylphenyl)methyl]guanine is selectively cytotoxic to T-cells at a concentration of about 3.1 μM in the presence of 10 μM of 2'-deoxyguanosine. Similarly, 8-amino-9-[(4-methoxyphenyl)methyl]guanine is selectively cytotoxic to T-cells at concentration of about 1.1 μM in the presence of 10 μM of 2'-deoxyguanosine. On the other hand, these compounds were nontoxic to B-cells in the presence or absence of the same amount of 2'-deoxyguanosine. Since T-cells play a central role in immune response, use of the compounds of the invention is contemplated for the immunoregulation of rejection in transplantation and autoimmune disease such as rheumatoid arthritis, systemic lupus erythematosus, inflammatory bowel disease, cancer, juvenile diabetes, myasthenia gravis, multiple sclerosis, and viral diseases. […]

SMILES: COc1ccc(Cn2c(N)nc3c(=O)[nH]c(N)nc32)cc1 [8-amino-9-[(4-methoxyphenyl)methyl]guanine]
- concentration at which selectively cytotoxic to T-cells: about 1.1 μM

SMILES: Cc1ccc(Cn2c(N)nc3c(=O)[nH]c(N)nc32)cc1 [8-amino-9-[(4-methylphenyl)methyl]guanine]
- concentration at which selectively cytotoxic to T-cells: about 3.1 μM
